{
  "source": "patent US20250229068A1",
  "about": "“ELECTROCONDUCTIVE MICRONEEDLE FOR DRUG DELIVERY INTO DEEP TISSUE” (The University of Hong Kong, priority 2024, published 2025)",
  "tested_on": "CGRP gene expression in PC-12 cells",
  "assay": "RT-qPCR of CGRP gene in PC-12 cells",
  "assay_type": "cell-based",
  "conditions": "miconazole and electric current together (0.5 mA, 5 mins), 24 h",
  "description": "PC-12 cells are cultures with 10% FBS and 1% Penicillin-Streptomycin supplemented with DMEM and incubated in a humidified incubator (37° C., 5% CO2). For the experiment, 5×10^4 cells per well are seeded on to 24 well plates and incubate for 24 hours to form a uniform monolayer. After that, miconazole nitrate ([…]) and electrical stimulation (0.5 mA, 5 mins) are given as treatment. Further, untreated cells are served as a control. After the treatment, medium is changed for electrical stimulation group and incubate for another 24 h. After that, total RNA is extracted from the treated cells using RNeasy Mini Kit (Qiagen, Hilden, Germany) and checked the purity using NanoDrop (Thermo Fisher Scientific, USA). Next, RNA is reversely transcribed into cDNA using the First Strand cDNA kit (Takara, DaLian, China). Real-time quantitative PCR reaction is performed with cDNA using TB green Premix. The mean cycle threshold (Ct) value of each target gene is normalized to the housekeeping genes (i.e., GAPDH).\nIt is hypothesized that the miconazole nitrate molecules released from the electroconductive MNs may also trigger the release of the calcitonin gene-related peptide (CGRP) from nociceptive neurons under electrical stimulation. […]",
  "data": [
    {"compound": "Clc1ccc(COC(Cn2ccnc2)c2ccc(Cl)cc2Cl)c(Cl)c1", "note": "(stereo not shown) [miconazole, miconazole nitrate]", "values": [
      {"measurement": "increase in the expression of CGRP", "value": "~3", "unit": "fold"}
    ]}
  ]
}
